According to the NIST ThermoML archive (doi:10.1021/je0341413):

Assay: xn = mol fraction of the nth substance listed
Conditions: 101.3 kPa, Liquid

CCCCO [butan-1-ol] + CCOC(=O)OCC
x2 = 0
Conditions	viscosity [mPa·s]
293.15 K	2.941
298.15 K	2.62
303.15 K	2.255
313.15 K	1.754

CCC(C)O (centres undefined) [butan-2-ol] + CCOC(=O)OCC
x2 = 0
Conditions	viscosity [mPa·s]
293.15 K	3.619
298.15 K	3.115
303.15 K	2.503
313.15 K	1.784

CCOC(=O)OCC [diethyl carbonate] + CC(C)O
Conditions	viscosity [mPa·s]
293.15 K, x1 = 0.0502	1.973
293.15 K, x1 = 0.1001	1.67
293.15 K, x1 = 0.203	1.27
293.15 K, x1 = 0.3012	1.073
293.15 K, x1 = 0.3954	0.962
293.15 K, x1 = 0.5021	0.886
293.15 K, x1 = 0.6035	0.841
293.15 K, x1 = 0.6976	0.811
293.15 K, x1 = 0.8048	0.794
293.15 K, x1 = 0.9129	0.796
293.15 K, x1 = 0.9529	0.799
293.15 K, x1 = 1	0.795
298.15 K, x1 = 0.049	1.766
298.15 K, x1 = 0.0987	1.501
298.15 K, x1 = 0.1978	1.135
298.15 K, x1 = 0.2945	0.94
298.15 K, x1 = 0.3925	0.836
298.15 K, x1 = 0.4925	0.788
298.15 K, x1 = 0.5939	0.763
298.15 K, x1 = 0.7004	0.74
298.15 K, x1 = 0.7979	0.719
298.15 K, x1 = 0.8967	0.717
298.15 K, x1 = 0.9504	0.726
298.15 K, x1 = 1	0.749
303.15 K, x1 = 0.0522	1.468
303.15 K, x1 = 0.099	1.277
303.15 K, x1 = 0.1944	1.009
303.15 K, x1 = 0.2913	0.864
303.15 K, x1 = 0.392	0.777
303.15 K, x1 = 0.4763	0.733
303.15 K, x1 = 0.5883	0.702
303.15 K, x1 = 0.6972	0.683
303.15 K, x1 = 0.7854	0.68
303.15 K, x1 = 0.889	0.684
303.15 K, x1 = 0.9488	0.69
303.15 K, x1 = 1	0.699
313.15 K, x1 = 0.0506	1.148
313.15 K, x1 = 0.0997	1.011
313.15 K, x1 = 0.2016	0.821
313.15 K, x1 = 0.303	0.71
313.15 K, x1 = 0.4008	0.661
313.15 K, x1 = 0.4969	0.634
313.15 K, x1 = 0.599	0.617
313.15 K, x1 = 0.7007	0.604
313.15 K, x1 = 0.8011	0.594
313.15 K, x1 = 0.903	0.596
313.15 K, x1 = 0.9511	0.605
313.15 K, x1 = 1	0.623

CCOC(=O)OCC [diethyl carbonate] + CCC(C)O
Conditions	viscosity [mPa·s]
293.15 K, x1 = 0.0512	2.892
293.15 K, x1 = 0.1031	2.341
293.15 K, x1 = 0.2021	1.652
293.15 K, x1 = 0.2997	1.289
293.15 K, x1 = 0.4023	1.092
293.15 K, x1 = 0.5115	0.979
293.15 K, x1 = 0.607	0.91
293.15 K, x1 = 0.707	0.861
293.15 K, x1 = 0.8038	0.825
293.15 K, x1 = 0.9089	0.804
293.15 K, x1 = 0.9524	0.803
293.15 K, x1 = 1	0.795
298.15 K, x1 = 0.0509	2.485
298.15 K, x1 = 0.101	2.001
298.15 K, x1 = 0.202	1.379
298.15 K, x1 = 0.3002	1.071
298.15 K, x1 = 0.404	0.937
298.15 K, x1 = 0.5003	0.888
298.15 K, x1 = 0.6008	0.858
298.15 K, x1 = 0.6963	0.813
298.15 K, x1 = 0.7987	0.752
298.15 K, x1 = 0.8999	0.709
298.15 K, x1 = 0.9466	0.712
298.15 K, x1 = 1	0.749
303.15 K, x1 = 0.0517	2.023
303.15 K, x1 = 0.1132	1.623
303.15 K, x1 = 0.2267	1.211
303.15 K, x1 = 0.3316	1.021
303.15 K, x1 = 0.4467	0.89
303.15 K, x1 = 0.5422	0.809
303.15 K, x1 = 0.6426	0.739
303.15 K, x1 = 0.7416	0.698
303.15 K, x1 = 0.8281	0.684
303.15 K, x1 = 0.9196	0.691
303.15 K, x1 = 0.9494	0.697
303.15 K, x1 = 1	0.699
313.15 K, x1 = 0.0511	1.503
313.15 K, x1 = 0.1026	1.28
313.15 K, x1 = 0.1988	0.996
313.15 K, x1 = 0.2955	0.83
313.15 K, x1 = 0.4041	0.738
313.15 K, x1 = 0.5084	0.69
313.15 K, x1 = 0.5983	0.662
313.15 K, x1 = 0.6988	0.636
313.15 K, x1 = 0.8034	0.61
313.15 K, x1 = 0.9022	0.601
313.15 K, x1 = 0.9523	0.606
313.15 K, x1 = 1	0.623
